From patent US8877734B2, “Seleny-methyluracil compounds, radiosensitizer and pharmaceutical composition using them” (Kongju National University Industry-University Cooperation …, priority 2010, dated 2014) come the findings set out here.

The series deals with Human lung cancer cell line H460. Briefly: Cytotoxicity test on cancer cells (water-soluble tetrazolium salt colorimetric assay). Type of series: cell-based. The conditions noted are these: for IC50: Homo sapiens, NCI-H460, H460 cells, compound alone without radiation, after a lapse of 72 hours, read-out: IC50 value, the concentration where 50% cells are killed; for cytotoxic effect when applied alone: cancer cell line H460, without the combined radiation treatment. On the procedure: Human lung cancer cell line H460 was used in the present test. Firstly, the H460 cell line was cultured in RPMI 1640 medium with 100 U/mL of penicillin, […] of streptomycin and 10% FBS, under the condition of 37° C. and 5% CO2 atmosphere. The cultured cells were placed on a 96-well-plate at the initial cell density of about 2×10^3 cells. In about 24 hours, the cells on the 96-well-plate were treated with the compound 1 and the compound 7 at a designated concentration for 48 hours. The relative cell viability was quantitatively determined by a colorimetric assay using a water-soluble tetrazolium salt. Optical density at 450 nm was measured by an automatic micro plate reader. The results were represented in FIGS. 1 and 2 in the drawings attached to the present specification. As shown in the test example 1, FIG. 1 and FIG. 2, the lung cancer cell line (H460) was treated with the compound 1 (MeSe-T), then after a lapse of 72 hours, IC50 value thereof, that is the concentration where 50% cells are killed, were about 100 μM.

Structures are written as SMILES.

Take `C[Se]Cc1cn([C@H]2CC(O)[C@@H](CO)O2)c(=O)[nH]c1=O` (stereo partly shown) [compound 1, 5-methylselenyl-methyl-2′-deoxy uridine]: the IC50 was ~100 µM and the “cytotoxic effect when applied alone” value is given as “weak cytotoxic effect”.
For `O=c1[nH]c(=O)n([C@H]2CC(O)[C@@H](CO)O2)cc1C[Se]c1ccccc1` (stereo partly shown) [compound 7, 5-phenylselenyl-methyl-2′-deoxy uridine], in that order: ~500 µM and “weak cytotoxic effect”.
